pKi: −log10 of the molar value. A value given as a limit tells only on which side of the number the result lay.

T2 sequence (P61169 whole entry): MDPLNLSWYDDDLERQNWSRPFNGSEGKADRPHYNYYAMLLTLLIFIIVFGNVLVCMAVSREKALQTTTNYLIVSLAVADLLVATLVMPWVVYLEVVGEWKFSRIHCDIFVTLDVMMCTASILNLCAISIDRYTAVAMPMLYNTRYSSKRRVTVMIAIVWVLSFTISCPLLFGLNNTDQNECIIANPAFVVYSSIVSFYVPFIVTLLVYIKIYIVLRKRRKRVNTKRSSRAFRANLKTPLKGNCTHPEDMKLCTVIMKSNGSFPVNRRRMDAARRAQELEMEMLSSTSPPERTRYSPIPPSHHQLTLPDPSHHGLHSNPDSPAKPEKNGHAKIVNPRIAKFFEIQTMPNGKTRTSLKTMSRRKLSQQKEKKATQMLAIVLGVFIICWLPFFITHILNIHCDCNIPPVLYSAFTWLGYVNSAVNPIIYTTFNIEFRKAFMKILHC

For one experiment, the system named is squirrel monkey. The experiment in a line: Squirrel monkey conditioned avoidance response (CAR) test. In kind it is in vivo. The settings on record: Primates, po, 1 h, read-out: CAR(MED) Sq. Monkey @ 1 hr. An excerpt: SQUIRREL MONKEY CONDITIONED AVOIDANCE RESPONSE (CAR) TEST
This test is designed to measure the potency of candidate compounds in a primate species.
Male or female squirrel monkeys weighing 800-1200 g housed one per cage are utilized. Initially each monkey is taught to terminate a 3 mA electric shock delivered through the grid floor of the test cage and an overlapping tone by depressing a lever in the cage.
In the second phase of the testing, a ten second tone is turned on prior to the shock component. A lever press during the sounding of the tone terminates the tone and prevents the occurrence of the shock component and is denoted as an "avoidance".
The compound testing is commenced after three consecutive days of re-testing. […] The monkey must achieve at least an 85% correct avoidance before drug testing commences. If this minimal avoidance level is achieved, the next day the monkey is orally dosed or injected with the subject compounds in the appropriate vehicle and the number of avoidances are recorded. An animal is defined as having been "affected" by any drug treatment if there is a 50% loss of avoidance behavior relative to the performance of the animal when only the vehicle is injected. The minimal effective dose (MED) is defined as that dose producing an effect in at least 50% of the animals.
A test may be conducted to determine the effective potency of a compound in accordance with the present invention by comparing a compound of the invention to a known compound, (R)-(+)-8-chloro-2,3,4,5-tetrahydro-3-methyl-5-phenyl-1H-3-benzazepin-7-olhemimaleate, denoted as Compound B (Sch 23390). A compound of the invention administered 60 minutes prior to the test is compared to compound B administered 30 minutes prior to test.
As for `Cc1ccc(NC(=O)Oc2cc3c(cc2Cl)CCN(C)[C@@H]2CCC[C@@H]32)c(C)c1` (relative stereo), the minimal effective dose is more than 3 mg/kg.

Still in this experiment, the particulars now being: Primates, po; Col. 9; p.o., 1 hr; minimal effective dose = dose producing an effect in at least 50% of the animals; read-out: CAR(MED) Sq. Monkey @ 1 hr.
On to `Cc1cc2c(cc1O)[C@@H]1CCCC[C@H]1N(C)CC2` (relative stereo), for which the minimal effective dose is more than 10 mg/kg.

With `C[C@H]1CC[C@@H]2[C@@H]1c1cc(O)c(Cl)cc1CCN2C` (relative stereo), the minimal effective dose is more than 10 mg/kg.

Consider `C[C@H]1CC[C@@H]2[C@@H](C1)c1cc(O)c(Cl)cc1CCN2C` (relative stereo), for which the minimal effective dose was more than 10 mg/kg.

In the case of `CN1CCc2cc(Cl)c(O)cc2[C@@H]2CCC[C@H]21` (relative stereo), the minimal effective dose is more than 10 mg/kg.

As to `Cc1cc2c(cc1O)[C@H]1[C@@H](CC[C@@H]1C)N(C)CC2` (relative stereo), the minimal effective dose is 3 mg/kg.

For the next experiment, the target named is T1, dopamine D-1 receptor (Rattus norvegicus, UniProt P18901).
T1 construct: Striatal tissue is excised, pooled, and homogenized; from tissue; host or cells: rat striatum, washed membrane homogenate
T1 sequence (P18901 whole entry): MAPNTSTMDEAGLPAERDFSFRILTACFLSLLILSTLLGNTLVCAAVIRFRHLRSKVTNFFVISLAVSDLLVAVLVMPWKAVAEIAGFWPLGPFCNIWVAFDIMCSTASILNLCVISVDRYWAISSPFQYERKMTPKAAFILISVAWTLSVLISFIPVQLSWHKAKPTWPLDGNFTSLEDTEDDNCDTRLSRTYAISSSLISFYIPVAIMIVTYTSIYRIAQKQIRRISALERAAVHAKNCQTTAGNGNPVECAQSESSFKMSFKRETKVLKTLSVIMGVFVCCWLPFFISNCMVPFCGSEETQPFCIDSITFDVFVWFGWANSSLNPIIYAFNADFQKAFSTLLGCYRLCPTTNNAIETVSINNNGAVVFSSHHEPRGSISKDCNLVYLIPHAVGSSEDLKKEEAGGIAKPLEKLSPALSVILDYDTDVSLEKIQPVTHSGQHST
The experiment in a line: Competitive inhibition assay, 3H-SCH 23390 binding (D-1), rat striatal tissue. Details: species or system rat (male Sprague-Dawley).
Settings: not given
An excerpt: (§1) A methodology for characterization of D-1 and D-2 receptor binding and an interpretation of the data are described by Billard et al., Life Sciences 35, 1885 (1984) in which the binding of the benzazepine (R)-(+)-8-chloro-2,3,4,5-tetrahydro-3-methyl-5-phenyl-1H-3-benzazepin-7-olhemimaleate (SCH 23390) to the dopamine D-1 receptor is characterized. A selectivity for D-1 receptor binding as compared to D-2 receptor binding .is believed to confer the therapeutic advantage of avoiding troublesome and potentially irreversible neurological side effects associated with D-2 receptor occupancy.
(§2) Tritiated SCH 23390 and tritiated spiperone (a potent D-2 receptor ligand) are obtained as described in the Billard et al. reference supra and serially diluted in 0.05M Tris buffer, pH 7.4, as required. Compounds of this invention are synthesized as disclosed herein and diluted in 0.05M Tris buffer, pH 7.4, as required.
(§3) Male Sprague-Dawley rats (200 to 250 g) from Charles River Breeding Laboratories, Mass. are used to obtain brain tissue. The rats are humanely sacrificed and their brains removed and placed on ice. Striatal tissue is excised, pooled, and homogenized (Brinkman Polytron, 10 sec) in 100 volumes (w/v) of ice cold 50 mM Tds buffer, pH 7.4 (at 25° C.). The homogenate is centrifuged at 20,000 xg for 10 min. The resultant pellet is rehomogenized in Tris buffer and centrifuged again. The final pellet is resuspended in 50 mM Tris buffer pH 7.4 containing 120 mM NaCl, 5 mM KCl, 2 mM CaCl2, and 1 mM MgCl2.
(§4) Polypropylene incubation tubes receive 100 μl of the individual test compounds at vadous concentrations dissolved or suspended in 0.05M Tris, pH 7.4 containing 4 mg/ml methylcellulose, 100 μl of a solution of ^3 H-SCH 23390 in Tris buffer (final reaction mixture concentration=0.3 nM) or 100 μl of a solution of ^3 H-spiperone in Tris buffer (final concentration=0.2 nM) and 800 μl of tissue suspension (ca. 3 mg/assay). Tubes are incubated at 37° C. for 15 minutes and rapidly vacuum filtered through Whatman GF/B filters and rinsed 4 times with 4 ml of ice cold 50 mM Tds buffer, pH 7.4. The filters are transferred to scintillation vials, equilibated with 10 ml of scintillant (Scintosol, Isolab, Inc.) for 16 hours at 25° C. and the radioactivity determined in a liquid scintillation counter, Ki values are determined as described by Billard et al. using the relationship Kj = IC50 /(1+([L]/KD)) wherein IC50 =concentration of test drug necessary to displace 50% of specifically bound ^3 H-Sch 23390, [L]=concentration of radioligand used in the assay, and KD =dissociation constant.
Compound `CC(C)c1ccc(NC(=O)Oc2cc3c(cc2Cl)CCN(C)[C@@H]2CCC[C@@H]32)cc1` (relative stereo) gave a negative logarithm of the Ki (pKi) of 8.27.

Consider `Cc1ccc(NC(=O)Oc2cc3c(cc2Cl)CCN(C)[C@@H]2CCC[C@@H]32)c(C)c1` (relative stereo), for which the pKi was 8.11.

The experiment is the same for the next values; noted with them: Col. 7; 3H-SCH 23390 0.3 nM, rat striatum, 37° C., 15 min, pH 7.4; read-out: Ki (nM) 3H-Sch23390.
As for `Cc1cc2c(cc1O)[C@@H]1CCCC[C@H]1N(C)CC2` (relative stereo), the Ki came out at 70 nM.

Take `C[C@H]1CC[C@@H]2[C@@H]1c1cc(O)c(Cl)cc1CCN2C` (relative stereo): the inhibition constant Ki is 3 nM.

In the case of `C[C@H]1CC[C@@H]2[C@@H](C1)c1cc(O)c(Cl)cc1CCN2C` (relative stereo), the inhibitory constant (Ki) amounted to 70 nM.

As to `Oc1cc2c(cc1Cl)CCN[C@@H]1CCC[C@@H]21` (relative stereo), the Ki turned out to be 96 nM.

Consider `CN1CCc2cc(Cl)c(O)cc2[C@@H]2CCC[C@H]21` (relative stereo), for which the inhibition constant (Ki) came to 2.8 nM.

On to `Cc1cc2c(cc1O)[C@H]1[C@@H](CC[C@@H]1C)N(C)CC2` (relative stereo), for which the Ki came out at 14 nM.

`CN1CCc2ccc(O)cc2[C@@H]2CCC[C@H]21` (relative stereo): the Ki was 335 nM.

Regarding `CCCCC(=O)Oc1cc2c(cc1Cl)CCN(C)C1CCCC21` (centres unmarked), the Ki was found to be 24 nM.

The next experiment concerns the target T2, D-2 receptor (Rattus norvegicus, UniProt P61169).
T2 construct: Striatal tissue is excised, pooled, and homogenized; from tissue; host or cells: rat striatum, washed membrane homogenate
The experiment can be described thus: Competitive inhibition assay, 3H-spiperone binding (D-2), rat striatal tissue. Details: species or system rat (male Sprague-Dawley).
Settings: not given
From the text: as §1, §2, §3, §4
`CC(C)c1ccc(NC(=O)Oc2cc3c(cc2Cl)CCN(C)[C@@H]2CCC[C@@H]32)cc1` (relative stereo) showed a negative-log Ki (pKi) of 6.37.

Take `Cc1ccc(NC(=O)Oc2cc3c(cc2Cl)CCN(C)[C@@H]2CCC[C@@H]32)c(C)c1` (relative stereo): the pKi was 6.37.

The same experiment, now with this note: Col. 8; 3H-spiperone 0.2 nM, rat striatum, 37° C., 15 min, pH 7.4; read-out: Ki (nM) 3H-Spip.
For the compound `Cc1cc2c(cc1O)[C@@H]1CCCC[C@H]1N(C)CC2` (relative stereo), the Ki was 71000 nM.

For the compound `C[C@H]1CC[C@@H]2[C@@H]1c1cc(O)c(Cl)cc1CCN2C` (relative stereo), the Ki is 350 nM.

For the compound `C[C@H]1CC[C@@H]2[C@@H](C1)c1cc(O)c(Cl)cc1CCN2C` (relative stereo), the inhibitory constant (Ki) is more than 10000 nM.

For `Oc1cc2c(cc1Cl)CCN[C@@H]1CCC[C@@H]21` (relative stereo), the Ki is 1300 nM.

For the compound `CN1CCc2cc(Cl)c(O)cc2[C@@H]2CCC[C@H]21` (relative stereo), the inhibition constant (Ki) amounted to 380 nM.

Turning to `Cc1cc2c(cc1O)[C@H]1[C@@H](CC[C@@H]1C)N(C)CC2` (relative stereo), the Ki is 840 nM.

For the compound `CN1CCc2ccc(O)cc2[C@@H]2CCC[C@H]21` (relative stereo), the Ki is 2320 nM.

Take `CCCCC(=O)Oc1cc2c(cc1Cl)CCN(C)C1CCCC21` (centres unmarked): the Ki is 177 nM.

Values taken from patent US5362728A, “4,5-bridged-2,3,4,5-tetrahydro-1H-3-benzazepine-7-ols and derivatives and compositions and methods employing such compounds” (Schering Corporation, priority 1992, dated 1994).
